Measured values published in patent US12590099B2, “Inhibitors of histone deacetylase useful for the treatment or prevention of HIV infection” (Merck Sharp & Dohme LLC, priority 2018, dated 2026).
Like-named read-outs stand apart in the source and are kept apart here.

Tests used:
[1] = biological target: T1, Recombinant human HDAC2 (Homo sapiens, UniProt Q92769); assay: Human HDAC enzyme inhibitor Fluor-de-Lys assay, HDAC2; assay type: biochemical
T1 construct: Full length human HDAC2-FLAG was expressed in baculovirus infected Sf9 cells; FLAG (C); made in house; host or cells: Sf9 (baculovirus)
Method: Human HDAC Enzyme Inhibitor Fluor-De-Lys Assay
Recombinant human HDAC8 (BML-SE145-0100) and HDAC10 (BML-SE559-0050) enzymes, HDAC substrates BML-KI104 and BML-KI178, and HDAC developer solutions BML-KI105 and BML-KI176 were purchased from Enzo Life Sciences. […] HDAC inhibitor suberoylanilide hydroxamic acid (SAHA) was obtained from Indofine and trichostatin A (TSA) was obtained from Sigma-Aldrich.
Recombinant human HDAC1, HDAC2, and HDAC3/SMRT heterodimer were prepared by Merck Research Laboratories. […] The eluted protein was then passed over an anti-HDAC1 immunoaffinity column to remove any complexes containing HDAC1. […]
The histone deacetylase activities of HDAC1, HDAC2, HDAC3, HDAC6, and HDAC8 were measured in modified FLUOR DE LYS assays in 384-well format. In this assay, HDAC enzymes are initially incubated with an ε-acetyl (or -trifluoroacetyl)-L-lysine-containing substrate with a C-terminal amide having aminomethylcoumarin as the amine component. HDACs cleave the ε-acetyl group, rendering the resulting product susceptible to AMC cleavage by trypsin. The released AMC is then detected by its fluorescence.
The HDAC3/SMRT assay employed buffer B, consisting of 20 mM HEPES, pH 8.0, 1 mM MgCl2, 50 mM NaCl, 2.7 mM KCl, 0.05% BSA, 0.005% Tween 20, and 10 μM IP4. […] The HDAC8 assay employed buffer D, consisting of 20 mM HEPES, pH 8.0, 1 mM MgCl2, 100 mM NaCl, 20 mM KCl, 0.10% n-octyl-β-D-glucoside (Anatrace) and 0.05% BSA. All steps were performed at room temperature (23° C.). The assay was performed by pre-incubating serial dilutions of test compounds with the target HDAC prior to initiation with substrate. Each compound was titrated in a 10-point dose response, using a 1:3 fold dilution scheme, with 0.15 ul of solution added by ECH0555 to the plate, followed by the addition of 20 μl of the appropriate HDAC isoform diluted in appropriate assay buffer. […] Final conditions used for each assay were: 1. HDAC 1, 0.3 nM total enzyme, 20 μM substrate BML-KI104; 2. […] HDAC 3/SMRT, 0.3 nM total enzyme, 20 μM substrate BML-KI104; 4. […] The reactions were stopped and developed by addition of 30 ul of HDAC developer solution containing a saturating level of HDAC inhibitor as follows: 1.

[2] = system: KARN cells (Jurkat 2C4); assay: cells; assay type: cell-based
Summary of the method: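 Luminescence (Steady-Glo, 10 min, room temperature) measured next day in KARN Jurkat 2C4 cells given compounds at up to 40 μM final with 0.4% DMSO. Percent activation normalised to DMSO (0%) and 2 μM SAHA (100%), fitted by 4-parameter curve.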

[3] = read-out: Karn EC50 (nM) 0.1% NHS, 0.1% normal human serum
[4] = read-out: Karn EC50 (nM) 5% NHS, 5% normal human serum
[5] = Homo sapiens, Jurkat, read-out: Karn EC50 (nM) 0.1% NHS, 0.1% normal human serum
[6] = Homo sapiens, Jurkat, read-out: Karn EC50 (nM) 5% NHS, 5% normal human serum

T1 sequence (Q92769 whole entry): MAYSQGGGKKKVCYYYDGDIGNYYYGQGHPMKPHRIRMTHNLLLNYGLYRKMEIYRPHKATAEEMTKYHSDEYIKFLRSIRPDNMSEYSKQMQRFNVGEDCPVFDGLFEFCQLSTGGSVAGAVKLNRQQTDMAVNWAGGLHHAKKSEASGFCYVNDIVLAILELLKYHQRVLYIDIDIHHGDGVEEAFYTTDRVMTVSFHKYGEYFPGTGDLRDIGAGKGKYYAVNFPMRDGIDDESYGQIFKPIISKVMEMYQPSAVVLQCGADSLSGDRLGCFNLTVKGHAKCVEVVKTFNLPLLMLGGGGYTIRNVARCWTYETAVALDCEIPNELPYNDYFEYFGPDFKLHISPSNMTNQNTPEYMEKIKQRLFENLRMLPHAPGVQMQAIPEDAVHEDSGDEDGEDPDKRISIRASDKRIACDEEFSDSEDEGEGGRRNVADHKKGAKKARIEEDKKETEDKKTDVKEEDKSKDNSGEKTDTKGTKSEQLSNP

Row | SMILES | IC50 [1] [nM] | EC50 [2, 3] [nM] | EC50 [2, 4] [nM] | EC50 [2, 5] [nM] | EC50 [2, 6] [nM]
1 | CCC(=O)CCCCC[C@H](NC(=O)C1CC12CCN(C)C(C)(C)C2)c1ncc(-c2ccc3nc(C)ccc3c2)[nH]1 (single isomer, unassigned) [Compound 130] | 15.3 | 503 | 598 |  | 
2 | CCC(=O)CCCCC[C@H](NC(=O)C1CC12CCN(C)C(C)(C)C2)c1ncc(-c2ccc3nc(C)ccc3c2)[nH]1 (single isomer, unassigned) [Compound 131] | 2.5 | 126 | 128 |  | 
3 | CCC(=O)CCCCC[C@H](NC(=O)C1CC12CCN(C)C(C)(C)C2)c1ncc(-c2ccc3nc(C)ccc3c2)[nH]1 (single isomer, unassigned) [Compound 132] | 6.5 | 169 | 281 |  | 
4 | CCC(=O)CCCCC[C@H](NC(=O)C1CC12CCN(C)C(C)(C)C2)c1ncc(-c2ccc3nc(C)ccc3c2)[nH]1 (single isomer, unassigned) [Compound 133] | 2.1 | 89 | 81 |  | 
5 | CCC(=O)CCCCC[C@H](NC(=O)[C@@]1(C)CC12CCN(C(C)C)CC2)c1ncc(-c2ccc3nc(C)ccc3c2)[nH]1 (single isomer, unassigned) [Compound 151, (1S or 1R)-1-methyl-6-(1-methylethyl)-N-{(1S)-1-[5-(2-methylquinolin-6-yl)-1H-imidazol-2-yl]-7-oxononyl}-6-azaspiro[2.5]octane-1-carboxamide] | 21.8 |  |  | 583 | 864
6 | CCC(=O)CCCCC[C@H](NC(=O)C1(C)CC12CCN(C(C)C)CC2)c1ncc(-c2ccc3nc(C)ccc3c2)[nH]1 (single isomer, unassigned) [Compound 152, (1S or 1R)-1-methyl-6-(1-methylethyl)-N-{(1S)-1-[5-(2-methylquinolin-6-yl)-1H-imidazol-2-yl]-7-oxononyl}-6-azaspiro[2.5]octane-1-carboxamide] | 4 |  |  | 128 | 96
7 | CCC(=O)CCCCC[C@H](NC(=O)C1CC12CC1CCC(C2)N1C)c1ncc(-c2ccc3ncccc3c2)[nH]1 (single isomer, unassigned) [Compound 166] | 2.2 |  |  | 469 | 591
8 | CCC(=O)CCCCC[C@H](NC(=O)C1CN(C)C1)c1[nH]c(-c2ccc(F)cc2)nc1Br [Compound 65, N-{(1S)-1-[4-bromo-2-(4-fluorophenyl)-1H-imidazol-5-yl]-7-oxononyl}-1-methylazetidine-3-carboxamide] | 306 |  |  | 2190 | 4390
9 | CCC(=O)CCCCC[C@H](NC(=O)[C@H]1CC12CCN(C)CC2)c1ncc(-c2ccc3nc(N(C)C)ccc3c2)[nH]1 [Compound 66, (1S)—N-[(1S)-1-{5-[2-(dimethylamino)quinolin-6-yl]-1H-imidazol-2-yl}-7-oxononyl]-6-methyl-6-azaspiro[2.5]octane-1-carboxamide] | > 900 |  |  | 27 | 14
10 | CCC(=O)CCCCC[C@H](NC(=O)[C@H]1CC12CCN(C)CC2)c1ncc(-c2cnc3cccnc3c2)[nH]1 [Compound 67] | 101 |  |  | 6480 | 6350
11 | CN1CCC2(CC1)C[C@@H]2C(=O)N[C@@H](CCCCCC(=O)CC(F)(F)F)c1ncc(-c2ccc(F)cc2)[nH]1 [Compound 68] | 126 |  |  | > 40000 | 
12 | CCC(=O)CCCCC[C@H](NC(=O)C1CN(C)C1)c1ncc(-c2ccc3c(c2)C2CCC3C2)[nH]1 (stereo partly drawn) [Compound 73, 1-methyl-N-{(1S)-7-oxo-1-[5-(1,2,3,4-tetrahydro-1,4-methanonaphthalen-6-yl)-1H-imidazol-2-yl]nonyl}azetidine-3-carboxamide] | 138 |  |  | 740 | 1450
13 | CCC(=O)CCCCC[C@H](NC(=O)[C@H]1CC12CCN(C)CC2)c1ncc(-c2ccc3c(c2)C2CCC3C2)[nH]1 (some centres unmarked) [Compound 74] | 36.2 |  |  | 351 | 376
14 | CCC(=O)CCCCC[C@H](NC(=O)[C@H]1CC12CCN(C)CC2)c1nc(F)c(-c2cc3ccccc3nc2OC)[nH]1 [Compound 75] | 101 |  |  | 275 | 801
15 | CCC(=O)CCCCC[C@H](NC(=O)[C@H]1CC12CCN(C)CC2)c1[nH]c(-c2ccc(F)cc2)nc1C#N [Compound 76] | 19.7 |  |  | 233 | 409
16 | CCC(=O)CCCCC[C@H](NC(=O)[C@H]1CC12CCN(C)CC2)c1ncc(-c2cc3ccccc3nc2OC)o1 [Compound 77] | 4.8 | 194 | 311 |  | 
17 | CCC(=O)CCCCC[C@H](NC(=O)[C@H]1CC12CCN(CC)CC2)c1ncc(-c2ccc3nc(C4CC4)ccc3c2)[nH]1 [Compound 101] | < 1.5 |  |  | 41 | 36
18 | CCC(=O)CCCCC[C@H](NC(=O)[C@H]1CC12CCN(CC1CC1)CC2)c1ncc(-c2ccc3nc(C4CC4)ccc3c2)[nH]1 [Compound 104] | < 1.5 |  |  | 33 | 28
19 | CCC(=O)CCCCC[C@H](NC(=O)C1=NOC2(CCN(C)CC2)C1)c1ncc(-c2cc3ccccc3nc2OC)[nH]1 [Compound 105] | 5.3 |  |  | 126 | 942
20 | CCC(=O)CCCCC[C@H](NC(=O)C1=NOC2(CCN(C(C)C)CC2)C1)c1ncc(-c2cc3ccccc3nc2OC)[nH]1 [Compound 106, N-{(1S)-1-[5-(2-methoxyquinolin-3-yl)-1H-imidazol-2-yl]-7-oxononyl}-8-(1-methylethyl)-1-oxa-2,8-diazaspiro[4.5]dec-2-ene-3-carboxamide] | 7.9 |  |  | 143 | 1070
21 | CCC(=O)CCCCC[C@H](NC(=O)[C@H]1CC12CCN(C)CC2)c1ncc(-c2ccc3c(ccc(=O)n3C)c2)o1 [Compound 109] | 9.4 |  |  | 706 | 579
22 | CCC(=O)CCCCC[C@H](NC(=O)[C@H]1CC12CCN(C)CC2)c1ncc(-c2ccc3cnc(OC)cc3c2)[nH]1 [Compound 113] | 6.6 |  |  | 58 | 107
23 | CCC(=O)CCCCC[C@H](NC(=O)[C@H]1CC12CCN(CC)CC2)c1ncc(-c2ccc3nc(C4CC4)ccc3c2)o1 [Compound 114] | 4.7 |  |  | 207 | 220
24 | CCC(=O)CCCCC[C@H](NC(=O)[C@H]1CC12CCN(CC1CC1)CC2)c1ncc(-c2ccc3nc(C4CC4)ccc3c2)o1 [Compound 115] | 2 |  |  | 239 | 209
25 | CCC(=O)CCCCC[C@H](NC(=O)[C@H]1CC12CCN(C(C)C)CC2)c1ncc(-c2ccc3nc(C4CC4)ccc3c2)o1 [Compound 116] | 15.7 |  |  | 630 | 617
26 | CCC(=O)CCCCC[C@H](NC(=O)[C@H]1CC12CCN(C)CC2)c1ncc(-c2ccc3nc(C4CC4)ccc3c2)o1 [Compound 121] | 4.4 |  |  | 232 | 242
27 | CCC(=O)CCCCC[C@H](NC(=O)[C@H]1CC[C@]2(CC1)OC(=O)c1ncccc12)c1ncc(-c2ccc3nc(C4CC4)ccc3c2)o1 [Compound 122] | 157 |  |  | 1130 | 2840
28 | CCC(=O)CCCCC[C@H](NC(=O)[C@H]1CC[C@]2(CC1)OC(=O)c1cccnc12)c1ncc(-c2ccc3nc(C4CC4)ccc3c2)o1 [Compound 123] | 94.6 |  |  | 868 | 3900
29 | CCC(=O)CCCCC[C@H](NC(=O)[C@H]1CC12CCN(C)CC2)c1ncc(-c2cc3ccccc3nc2OC)o1 [Compound 125] | 5.6 |  |  | 154 | 256
30 | CCC(=O)CCCCC[C@H](NC(=O)[C@H]1CC12CCN(CC)CC2)c1ncc(-c2ccc3c(=O)n(C(C)C)ccc3c2)[nH]1 [Compound 126] | 1.3 |  |  | 53 | 33
